Data taken from patent US7074825B2, “Composition and method for treating cancer” (priority 2002, dated 2006).
“And” between values parts separate entries of the source, which are not always exact repeats. Identical values can stand only once. Like-named read-outs stand apart in the source and are kept apart here.

Columns and labels:
B16 melanoma cells = experiment: B16 melanoma cell proliferation (cell count / CellTiter 96); conditions: for Growth (average percent cell survival relative to the control group after 72 h exposure period): geranyl anthranilate 30 μM, alone or all three together; for Observed Growth (empirical percentage survival): 40 hour exposure
Method: B16 melanoma cells were grown in monolayer culture (35×10 mm flasks) in 3 ml RPMI 1640 medium supplemented with 10% fetal bovine serum (FBS) and 80 mg gentamicin/L. The cultures, seeded with 3.3×10^4 cells/mL, were incubated for 24 h at 37° C. in a humidified atmosphere of 5% CO2. The medium was decanted and replaced with fresh medium containing the test agents. Tocotrienol, perillyl alcohol, and geranyl- or farnesyl-hydroquinone ethers were dissolved in ethanol; and lovastatin and genistein were dissolved in dimethyl sulfoxide, DMSO. The incubations were continued for an additional 48 h. All cultures contained 1 ml/L each of ethanol and DMSO. The medium and detached cells were decanted, the monolayer was washed twice with Hanks' Balanced Salt Solution (HBSS) and then incubated with a trypsin-EDTA solution at 37° C. for 2 min. Trypsin was inactivated by suspending the cells in medium containing 10% FBS. The trypsinized cells were pelleted at 250 xg and resuspended in HBSS. Viable cells, cells that excluded 0.4% trypan blue were counted with a hemocytometer; 24-h cell counts were deducted from final cell counts to provide an estimate of the net increase in cell number.
Measurement of B16 cell proliferation was confirmed by using CellTiter 96, Aqueous One Solution (Promega). Seeding density was determined in the following pilot test. B16 cells were maintained in monolayer culture (96-well tissue culture plate) in 0.1 mL of the medium described above. Cultures, seeded in escalating densities (0-8000 cells/well with a 500-cell interval), were incubated for 72 h at 37° C. in a humidified atmosphere of 5% CO2. At 24 h the medium was decanted from each well and replaced with 0.1 mL fresh medium. The 72-h cell populations were determined by adding 20 μl of CellTiter 96, Aqueous One Solution to each well; the plate was held in dark at 37° C. for 2 h and then read at 490 nm with a SPECTRAmax, 190 multi-plate reader with SOFTmax, PRO version 3.0 (Molecular Devices). Cell survival data were assessed as absorbance versus cell seeding density. The absorbance has a linear correlation with cell seeding density up to 2000 B16 cells/well. The midpoint of cell inoculation density, 1000 cells/well, was chosen for B16 cell proliferation assay. This procedure of determining seeding density also applies to all other cell lines in which the CellTiter 96, Aqueous One Solution was used for proliferation assay. In the proliferation assay, B16cells were incubated in 96-well plates for 24 h. The medium was decanted from each well and replaced with 0.1 mL fresh medium containing the test agents. Incubation continued for an additional 48 h. Cell populations of all wells were determined according to CellTiter 96 procedure as described above. Cell proliferation represents the net absorbance, the difference in absorbance between final and 24-h measurements.

B16 cancer cell cultures = experiment: Cell phase distribution by flow cytometry (propidium iodine), B16; format: cell-based; conditions: genistein 5 μM, lovastatin 0.5 μM, geranyl anthranilate 30 μM, alone or all three together; for G2 phase cells: control 12.7%; for S phase cells: control 22.5%; for G1 phase cells: control 64.9%
Description: (§1) Subsequent to the treatment of the cancer cells with these HGM-CoA reductase inhibitors, the cells were fixed in ethanol, treated with RNase and stained with propidium iodine. Fluorescent measurements were then made via a flow cytometer using a laser. A double discriminator was used as the primary gate to eliminate cell aggregates. The distribution profiles associated with the various phases (G1, S) were then obtained through the use of least squares fits of the frequency emission spectra.

[1] = test system: DU145 cancer cell cultures; experiment: Cell phase distribution by flow cytometry (propidium iodine), DU145; format: cell-based, Human; conditions: genistein 10 μM, lovastatin […], γ-tocotrienol 5 μM, alone or all three together; for G2 phase cells: control 11.6%; for G1 phase cells: control 65.4%; for S phase cells: control […]
Description: as §1

[2] = test system: Human PC-3 prostate adenocarcinoma cells; experiment: PC-3 cell proliferation, CellTiter 96, 72 h exposure; format: cell-based; conditions: for IC50: PC-3 cells, estimated, read-out: IC50 (suppression of proliferation); for Growth (average percent cell survival relative to the control group): PC3; for Absorbance (net absorbance at 490 nm, net growth after 72 h): PC-3
Method: (§2) Seeding density was determined in the following pilot test. […] Incubation continued for an additional 48 h.
(§3) Incubation continued for additional 72 h.

[3] = test system: Human DU145 prostate carcinoma cells; experiment: DU145 cell proliferation, CellTiter 96, 72 h exposure; format: cell-based; conditions: for Absorbance (net absorbance at 490 nm, net growth after 72 h) / Growth (average percent cell survival relative to the control group) / Growth (average percent cell survival relative to the control group after 72 h exposure period): DU145; for Growth (average percent cell survival relative to the control group after 72 h exposure period): lovastatin […], alone or all three together; for IC50: DU145 cells, estimated, read-out: IC50 (suppression of proliferation)
Method: as §2, §3

[4] = test system: Human LNCaP prostate carcinoma cells; experiment: LNCaP cell proliferation, CellTiter 96, 72 h exposure; format: cell-based
Method: as §2, §3

[5] = genistein 5 μM, lovastatin 0.5 μM
[6] = genistein 10 μM, γ-tocotrienol 5 μM
[7] = perillyl alcohol 800 μM, negative = cell killing

CC(C)=CCC/C(C)=C/COC(=O)c1ccccc1N [Geranyl Anthranilate, geranyl anthranilate]
Growth (average percent cell survival relative to the control group after 72 h exposure period) (B16 melanoma cells; [5]): 81%
G2 phase cells (B16 cancer cell cultures): 9.8%
S phase cells (B16 cancer cell cultures): 22.9%
G1 phase cells (B16 cancer cell cultures): 67.3%

O=c1c(-c2ccc(O)cc2)coc2cc(O)cc(O)c12 [Genistein, genistein]
G2 phase cells [1]: 15.8%
G1 phase cells [1]: 64.9%
S phase cells [1]: 19.3%
IC50 ([2]; Homo sapiens): 70 ± 17 µM
Growth (average percent cell survival relative to the control group) ([2]; genistein 10 μM): 121 ± 3%
Growth (average percent cell survival relative to the control group) ([2]; genistein 20 μM): 87% and 95 ± 4%
Growth (average percent cell survival relative to the control group) ([2]; genistein 40 μM): 78% and 74 ± 11% and 84 ± 2%
Absorbance (net absorbance at 490 nm, net growth after 72 h) ([2]; genistein 10 μM): 0.43
Absorbance (net absorbance at 490 nm, net growth after 72 h) ([2]; genistein 20 μM): 0.39
Absorbance (net absorbance at 490 nm, net growth after 72 h) ([2]; genistein 40 μM): 0.32
Growth (average percent cell survival relative to the control group) (B16 melanoma cells; genistein 5 μM): 83%
Observed Growth (empirical percentage survival) (B16 melanoma cells; genistein 5.0 μM): 63%
Growth (average percent cell survival relative to the control group after 72 h exposure period) (B16 melanoma cells; [5]): 73%
G2 phase cells (B16 cancer cell cultures): 10.8%
S phase cells (B16 cancer cell cultures): 21.7%
G1 phase cells (B16 cancer cell cultures): 67.6%
Absorbance (net absorbance at 490 nm, net growth after 72 h) ([3]; genistein 10 μM): 0.53
Growth (average percent cell survival relative to the control group) ([3]; genistein 10 μM): 100% and 93%
Growth (average percent cell survival relative to the control group after 72 h exposure period) [3, 6]: 100%
Absorbance (net absorbance at 490 nm, net growth after 72 h) ([3]; genistein 20 μM): 0.34
Growth (average percent cell survival relative to the control group) ([3]; genistein 20 μM): 97%
Absorbance (net absorbance at 490 nm, net growth after 72 h) ([3]; genistein 40 μM): 0.20
Growth (average percent cell survival relative to the control group) ([3]; genistein 40 μM): 38 ± 10%
IC50 ([3]; Homo sapiens, DU-145): 30 µM
Growth (average percent cell survival relative to the control group) ([4]; genistein 10 μM): 100%
Growth (average percent cell survival relative to the control group) ([4]; genistein 20 μM): 70% and 99%

CC(=O)O[C@H]1C(=O)[C@@]2(C)[C@H]([C@H](OC(=O)c3ccccc3)[C@]3(O)C[C@H](OC(=O)[C@H](O)[C@@H](NC(=O)c4ccccc4)c4ccccc4)C(C)=C1C3(C)C)[C@]1(OC(C)=O)CO[C@@H]1C[C@@H]2O [Taxol, taxol, reference compound]
Growth (average percent cell survival relative to the control group) ([2]; taxol 2 nM): 97 ± 5%
Growth (average percent cell survival relative to the control group) ([2]; taxol 5 nM): 71 ± 1%

C/C=C(\C)C(=O)OCC=C(C)CCC=C(C)CCC=C(C)C [Farnesyl Tiglate, farnesyl tiglate]
Growth (average percent cell survival relative to the control group) (B16 melanoma cells; farnesyl tiglate 25 μM): 70%
Growth (average percent cell survival relative to the control group) (B16 melanoma cells; farnesyl tiglate 50 μM): 49%

CC[C@H](C)C(=O)O[C@H]1C[C@@H](C)C=C2C=C[C@H](C)[C@H](CC[C@@H]3C[C@@H](O)CC(=O)O3)[C@H]21 [Lovastatin, [1S-[1α(R*),3α,7β,8β(2S*,4S*), 8a.β.]]-2-methylbutanoic acid 1,2,3,7,8,8a-hexahydro-3,7-dimethyl-8-[2-(tetrahydro-4-hydroxy-6-oxo-2H-pyran-2-yl)ethyl]-1-naphthalenyl ester, reference compound]
G2 phase cells [1]: 15.7%
G1 phase cells [1]: 62.0%
S phase cells [1]: 22.3%
IC50 ([2]; Homo sapiens): 2.2 ± 0.5 µM
Growth (average percent cell survival relative to the control group) ([2]; lovastatin 0.75 μM): 87 ± 3%
Absorbance (net absorbance at 490 nm, net growth after 72 h) ([2]; lovastatin 1 μM): 0.32
Absorbance (net absorbance at 490 nm, net growth after 72 h) ([2]; lovastatin 2 μM): 0.10
Absorbance (net absorbance at 490 nm, net growth after 72 h) ([2]; lovastatin 4 μM, negative = cell killing): −0.02
Growth (average percent cell survival relative to the control group after 72 h exposure period) (B16 melanoma cells; [5]): 71%
Growth (average percent cell survival relative to the control group) (B16 melanoma cells; lovastatin 0.5 μM): 100%
Growth (average percent cell survival relative to the control group) (B16 melanoma cells; lovastatin 1.0 μM): 83%
Growth (average percent cell survival relative to the control group) (B16 melanoma cells; lovastatin 3.0 μM): 42%
G2 phase cells (B16 cancer cell cultures): 9.3%
S phase cells (B16 cancer cell cultures): 22.2%
G1 phase cells (B16 cancer cell cultures): 68.5%
Growth (average percent cell survival relative to the control group after 72 h exposure period) [3, 6]: 100%
Growth (average percent cell survival relative to the control group) ([3]; lovastatin 3 μM): 100%
Growth (average percent cell survival relative to the control group) ([3]; lovastatin 3.0 μM): 100%
Absorbance (net absorbance at 490 nm, net growth after 72 h) ([3]; lovastatin 4 μM): 0.37
Absorbance (net absorbance at 490 nm, net growth after 72 h) ([3]; lovastatin 8 μM): 0.30
Absorbance (net absorbance at 490 nm, net growth after 72 h) ([3]; lovastatin 16 μM): 0.18
Absorbance (net absorbance at 490 nm, net growth after 72 h) ([3]; lovastatin 32 μM): 0.15
IC50 ([3]; Homo sapiens, DU-145): 18 ± 2 µM
Growth (average percent cell survival relative to the control group) ([4]; lovastatin 3 μM): 100%
Growth (average percent cell survival relative to the control group) ([4]; lovastatin 3.0 μM): 100%

γ-tocotrienol
G2 phase cells [1]: 12.2%
G1 phase cells [1]: 66.7%
S phase cells [1]: 21.1%
Growth (average percent cell survival relative to the control group) ([2]; γ-tocotrienol 20 μM): 100%
Absorbance (net absorbance at 490 nm, net growth after 72 h) ([2]; γ-tocotrienol 40 μM): 0.36
Absorbance (net absorbance at 490 nm, net growth after 72 h) ([2]; γ-tocotrienol 80 μM): 0.02
IC50 [2]: 39 µM
Growth (average percent cell survival relative to the control group) (B16 melanoma cells; γ-tocotrienol 5 μM): 73%
Growth (average percent cell survival relative to the control group after 72 h exposure period) [3, 6]: 87%
Absorbance (net absorbance at 490 nm, net growth after 72 h) ([3]; γ-tocotrienol 5 μM): 0.39
Growth (average percent cell survival relative to the control group) ([3]; γ-tocotrienol 5 μM): 87%
Absorbance (net absorbance at 490 nm, net growth after 72 h) ([3]; γ-tocotrienol 10 μM): 0.40
Growth (average percent cell survival relative to the control group) ([3]; γ-tocotrienol 10 μM): 68%
Absorbance (net absorbance at 490 nm, net growth after 72 h) ([3]; γ-tocotrienol 20 μM): 0.33
Growth (average percent cell survival relative to the control group) ([3]; γ-tocotrienol 20 μM): 70%
Absorbance (net absorbance at 490 nm, net growth after 72 h) ([3]; γ-tocotrienol 30 μM): 0.20
Absorbance (net absorbance at 490 nm, net growth after 72 h) ([3]; γ-tocotrienol 40 μM, negative = cell killing): −0.05
IC50 [3]: 20 ± 2 µM
Growth (average percent cell survival relative to the control group) ([4]; γ-tocotrienol 5 μM): 100%
Growth (average percent cell survival relative to the control group) ([4]; γ-tocotrienol 10 μM): 76%
Growth (average percent cell survival relative to the control group) ([4]; γ-tocotrienol 20 μM): 70%

CC(C)=CCCC(C)=CCCC(C)=CCO [Farnesol, farnesol]
Growth (average percent cell survival relative to the control group) ([2]; farnesol 50 μM): 53 ± 5%
Growth (average percent cell survival relative to the control group) ([2]; farnesol 100 μM): 93 ± 7%
Observed Growth (empirical percentage survival) (B16 melanoma cells; farnesol 12.5 μM): 84%
Observed Growth (empirical percentage survival) (B16 melanoma cells; farnesol 25 μM): 54%
Growth (average percent cell survival relative to the control group) ([3]; farnesol 50 μM): 38%
Growth (average percent cell survival relative to the control group) ([3]; farnesol 100 μM): 79 ± 11%

C=C(C)[C@@H]1CC=C(CO)CC1 [Perillyl Alcohol, perillyl alcohol]
IC50 ([2]; Homo sapiens): 480 µM
Absorbance (net absorbance at 490 nm, net growth after 72 h) ([2]; perillyl alcohol 200 μM): 0.34
Absorbance (net absorbance at 490 nm, net growth after 72 h) ([2]; perillyl alcohol 400 μM): 0.09
Absorbance (net absorbance at 490 nm, net growth after 72 h) ([2]; perillyl alcohol 600 μM): 0.06
Absorbance (net absorbance at 490 nm, net growth after 72 h) [2, 7]: −0.05
Absorbance (net absorbance at 490 nm, net growth after 72 h) ([3]; perillyl alcohol 100 μM): 0.46
Absorbance (net absorbance at 490 nm, net growth after 72 h) ([3]; perillyl alcohol 200 μM): 0.40
Absorbance (net absorbance at 490 nm, net growth after 72 h) ([3]; perillyl alcohol 400 μM): 0.18
Absorbance (net absorbance at 490 nm, net growth after 72 h) [3, 7]: −0.06
Absorbance (net absorbance at 490 nm, net growth after 72 h) ([3]; perillyl alcohol 1600 μM, negative = cell killing): −0.05
IC50 ([3]; Homo sapiens, DU-145): 420 µM
